# Test results from US10232023B2, “Methods for treatment of and prophylaxis against inflammatory disorders” (THE UNIVERSITY OF UTAH RESEARCH FOUNDATION, priority 2013, dated 2019).
# “Also recorded” adds a separate entry of the source.
# How the values were obtained:
# [1] = tested on: LPS-stimulated human PMNs; experiment: Reactive oxygen species generation, dihydrorhodamine assay; format: cell-based; settings: 1 nM, 1 hour pre-incubation; LPS 100 ng/mL
# Protocol: Human PMNs isolated from healthy adult whole blood were resuspended to a concentration of 2×10^6 cells/mL in M-199 media and pre-incubated±[…] (1 nM) or SCR (1 nM) peptide for 1 hour under standard conditions. The PMNs were then stimulated with LPS (100 ng/mL) for 1 hour, washed, and resuspended with a dihydrorhodamine (7.25 mM; D-632, MOLECULAR PROBES) and catalase (1000 Units/mL; C-40, SIGMA) mixture and incubated at 37° C. for 10 minutes. After incubation, samples were placed at 4° C. and analyzed for ROS-dependent fluorescence using a BECTON-DICKINSON FACSCAN device equipped with CELLQUEST software.
# Mature ewe PMNs = experiment: NET formation by sheep PMNs; format: cell-based
# Excerpt: Referring to FIGS. 13A and 13B, PMNs from preterm lamb cord blood and from mature ewes were isolated.
# [2] = tested on: PMA-stimulated adult PMNs; experiment: NET formation by PMA-stimulated adult human PMNs; format: cell-based; settings: pre-incubation 1 nM, 1 hour; PMA 20 nM
# Protocol: NET formation by PMA-stimulated adult PMNs with or without CRISPP pre-incubation was assessed.
# (§1) Human PMNs isolated from healthy adult donors were stimulated with LPS (100 ng/mL) or phorbal-12-mystirate (PMA; 20 nM), ±nNIF (1 nM) or CRISPP (1 nM), pre-incubation (1 hour). Scrambled control peptide (SCR) generated using the identical amino acid content as CRISPP but linked in a random order was used as a control. NET formation was assessed 2 hours after stimulation.
# (§2) Briefly, primary PMNs isolated from preterm infants, healthy term infants, and healthy adults (2×10^6 cells/mL) were incubated with control buffer or stimulated with LPS (100 ng/mL), PMA (20 nM), or S. aureus bacteria (MOI 100) for 1 hour at 37° C. in 5% CO2/95% air on glass coverslips coated with poly-L-lysine. For selected experiments, primary PMNs were pre-incubated with autologous plasma, cord blood plasma, nNIF (1 nM), CRISPP (1 nM), or SCR (1 nM) for 1 hour prior to imaging. After pre-incubation and/or stimulation, PMNs were gently washed with PBS and incubated with a mixture of cell permeable (SYTO Green, MOLECULAR PROBES) and impermeable (SYTOX Orange, MOLECULAR PROBES) DNA fluorescent dyes. Confocal microscopy was accomplished using a FV300 1×81 Microscope and FLUOVIEW software (OLYMPUS). Both 20× and 60× objectives were used. Z-series images were obtained at a step size 1 μm over a range of 20 μm for each field. OLYMPUS FLUOVIEW and ADOBE PHOTOSHOP CS2 software were used for image processing.
# (§3) Supernatant total histone H3 content was determined as previously referenced in McInturff et al., Blood, 2012, 120: 3118-3125. After live cell imaging of control and stimulated primary PMNs (2×10^6/mL; various agonists), the cells were incubated with PBS containing DNase (40 U/mL) for 15 minutes at room temperature to break down and release NETs formed in response to stimulation. The supernatant was gently removed and centrifuged at 420×g for 5 minutes. The cell-free supernatant was then mixed 1:3 with 4× Laemmli buffer prior to western blotting. A polyclonal primary antibody against human histone H3 protein (CELL SIGNALING TECHNOLOGY) and infrared secondary antibodies (LI-COR BIOSCIENCES) were used. Imaging and densitometry were performed on the ODYSSEY™ infrared imaging system (LI-COR BIOSCIENCES).
# LPS-stimulated PMNs = experiment: NET formation by LPS-stimulated adult human PMNs (live cell imaging, histone H3 release); format: cell-based; settings: healthy adult PMNs; peptide/protein pre-incubation 1 hour (1 nM where stated); LPS 100 ng/mL
# Protocol: PMNs from healthy adult donors and from 28 day old preterm infants were pre-incubated for one hour with thawed cord blood plasma from that particular preterm infant or with autologous plasma collected that day from either the preterm infant peripheral blood sample or the blood sample from the healthy adult. NET formation was then assessed in vitro following LPS-stimulation (100 ng/mL) for 2 hours.
# as §1, §2, §3
# To determine whether the 29 amino acid peptide identified in Example 5 were the substances circulating in umbilical cord blood responsible for the inhibition of NET formation, cord blood plasma was depleted of nNIF via affinity purification using the carboxy-terminus AAT antibody. nNIF was then eluted from the column and used in experiments to assess the NET-inhibitory activity of unaltered cord blood plasma, nNIF-depleted cord blood plasma, and affinity purified nNIF from cord blood plasma. As a control, recombinant AAT in nNIF-depleted cord blood was also assessed (see FIGS. 5A-5F).
# Cord blood plasma depleted of both nNIF and full length AAT was collected as were the peptides captured by affinity purification for use in in vitro assays of NET formation. Full length, enzymatically active AAT (SIGMA) was also resuspended in elution buffer and tested in parallel.
# [3] = tested on: PMNs isolated from healthy adult donors; experiment: PMN phagocytosis of E. coli BIOPARTICLES; format: cell-based, human; settings: 1 nM, 60 minutes pre-incubation, 4 hours
# Protocol: PMNs were isolated from blood of healthy adult donors and resuspended in M-199 at a concentration of 2×10^6 cells/mL. Leukocytes were pre-incubated for 60 minutes under standard conditions with cytochalasin B and […] (1 nM), or SCR (1 nM). Following pre-incubation, PMNs were incubated with 6×10^6 E. coli BIOPARTICLES (E-13231, MOLECULAR PROBES) on a rotator for 4 hours under standard conditions. The PMNs were then washed and resuspended in the starting volume in M-199 before being spun down onto glass coverslips and fixed with 2% paraformaldehyde for 10 minutes and permeabilized with 0.1% Triton-X-100 for 10 minutes. Leukocytes were stained with WGA 555 (INVITROGEN) and TO[…] (MOLECULAR PROBES) and randomly selected high power visual field images were captured using confocal microscopy. IMAGE-J software (NIH) was used to determine the percentage of PMNs that were positive for fluorescently labeled E. coli BIOPARTICLES detected at 488 nm.
# [4] = tested on: PMNs isolated from healthy adult donors; experiment: PMN chemotaxis, modified Boyden Chamber assay; format: cell-based, human; settings: 1 nM, one hour pre-incubation; IL-8 2 ng/mL
# Protocol: Chemotaxis by PMNs isolated from healthy adult donors was assessed using a modified Boyden Chamber assay±a one hour pre-incubation […] (1 nM), or SCR (1 nM). Recombinant human IL-8 (2 ng/mL) was used as the chemoattractant. Chemotaxis through a 5 micron filter was determined by counting PMNs in 10 randomly selected high-power fields as previously described in Hill et al., Lancet, 1974, 2: 617-619. In separate experiments, […], or SCR (all at 1 nM) were evaluated for chemoattractant activity using the same system.
# [5] = tested on: Outbred Swiss-Webster mice, E. coli peritonitis; experiment: Murine E. coli peritonitis: peritoneal fluid and membrane analysis; format: in vivo, mouse
# Protocol: Outbred Swiss-Webster mice were injected intraperitoneally with 4.5×10^7 colony-forming units (cfu) of E. coli±nNIF, CRISPP, or scrambled control peptide (SCR) (10 mg/kg, IP injection) one hour prior to E. coli infection. At the 3 hour time point after infection, 3 mice were sacrificed and the peritoneal fluid and peritoneal tissue were collected and analyzed for leukocyte accumulation, bacteriology, and in vivo NET formation. […] See Fuchs et al., J Cell Biol, 2007, 176: 231-241. The number of E. coli cfu/mL of peritoneal fluid in CRISPP pretreated mice was also determined compared to SCR mice (see FIG. 17C).
# Animals were treated with CRISPP (10 mg/kg), nNIF (10 mg/kg), or SCR (10 mg/kg) by i.p. injection 1 hour prior to infection (E. coli, 4.5×10^7 cfu/mouse, i.p. injection) or stimulation (LPS, 25 mg/kg, i.p. injection (SIGMA)). Control mice were injected with saline alone. The mice were sacrificed in a CO2 chamber 3 hours post-infection/stimulation with the peritoneal contents harvested and analyzed. Briefly, the skin of the abdomen was cut open in the midline after thorough disinfection and without injuring the muscle. The peritoneal cavity was lavaged with sterile saline solution ([…]) and analyzed for in vivo NET formation, bacteriology, and leukocyte accumulation. NETs in the peritoneal fluid were qualitatively and quantitatively analyzed using live cell imaging with confocal microscopy and histone release assays. NETs on the inner surface of the peritoneal membrane were assessed quantitatively using live cell imaging followed by standardized grid analysis of 5 randomly selected high power visual fields per tissue sample (IMAGE-J software, NIH). Peritoneal bacterial colony forming units (cfu) counts were quantified by permeabilizing all recovered leukocytes with 0.1% Triton-X 100 for 10 minutes and performing serial dilutions and bacterial cultures on 5% sheep blood agar plates (HARDY DIAGNOSTICS). After a 24-hour incubation, bacterial counts were determined. Total leukocyte counts in the peritoneal lavage were determined in Neubauer chambers using an optical microscope after dilution in Turk's solution (2% acetic acid). Differential leukocyte analysis was performed using a 60× oil immersion objective to assess morphology of cyto-centrifuged cells stained with May-Grunwald-Giemsa dye.
# [6] = 10 mg/kg IP pretreatment, vs SCR control
substance,measurement,setting,value
"Cancer-Associated SCM-Recognition, Immune Defense Suppression, and Serine Protease Protection Peptide [CRISPP, nNIF-related peptide (nNRP)]",Reactive oxygen species generation,[1],did not significantly inhibit
same,NET formation by LPS-stimulated sheep PMNs,"Mature ewe PMNs; mature ewe PMNs, pre-treatment 1 hour, LPS 100 ng/mL",inhibited NET formation in a dose-dependent manner
same,NET formation by PMA-stimulated sheep PMNs,"Mature ewe PMNs; sheep PMNs, PMA",inhibited NET formation
same,NET formation by PMA-stimulated PMNs,[2],significantly inhibited NET formation
same,NET formation by LPS-stimulated PMNs,LPS-stimulated PMNs,blocked NET formation by LPS-stimulated PMNs in a concentration dependent manner; also recorded: significantly inhibited NET formation
same,PMN phagocytosis,[3],did not significantly inhibit
same,PMN chemotaxis,[4],did not significantly inhibit
same,Peritoneal PMN accumulation,"[5]; 10 mg/kg IP one hour prior to E. coli, 3 hours after infection, vs E. coli alone or SCR",significant increase
same,Peritoneal fluid bacterial concentration (E. coli cfu/mL),"[5]; 10 mg/kg IP one hour prior to E. coli, 3 hours after infection, vs SCR",significant increase
same,NET formation by histone H3 release assay of the peritoneal fluid,[5]; [6],significant quantitative decrease
same,NET formation in the peritoneal fluid (live cell imaging),[5]; [6],qualitative decrease
same,Peritoneal membrane-associated NET formation,"[5]; freshly resected peritoneal membrane, live cell imaging, standardized grid",qualitative and quantitative decrease
